Assays:
Mus musculus [1] = assay: Anticonvulsant activity in Swiss albino mouse assessed as duration of pentylenetetrazole-induced seizures at 10 mg/kg administered 1 hr before PTZ challenge; format: functional
Mus musculus [2] = assay: Anticonvulsant activity in Swiss albino mouse assessed as protection against pentylenetetrazole-induced seizures at 10 mg/kg administered 1 hr before PTZ challenge relative to control; format: functional

Structure (SMILES): COc1ccc2cc(/C=C/c3nc4ccccc4n4c(C(F)(F)F)nnc34)ccc2c1
- Activity (Mus musculus [1]): 12 s
- Activity (Mus musculus [2]): 0%

Structure (SMILES): O=[N+]([O-])c1cccc(/C=C/c2nc3ccccc3n3nnnc23)c1
- Activity (Mus musculus [1]): 11 s
- Activity (Mus musculus [2]): 0%

Structure (SMILES): COc1ccc(/C=C/c2nc3ccccc3n3cnnc23)cc1
- Activity (Mus musculus [1]): 14 s
- Activity (Mus musculus [2]): 0%

Structure (SMILES): C(=C\c1nc2ccccc2n2nnnc12)/c1ccccc1
- Activity (Mus musculus [1]): 0 s
- Activity (Mus musculus [2]): 100%

Structure (SMILES): COc1ccc(/C=C/c2nc3ccccc3n3c(-c4ccc(F)cc4)nnc23)cc1
- Activity (Mus musculus [1]): 0 s
- Activity (Mus musculus [2]): 100%

Structure (SMILES): O=[N+]([O-])c1cccc(/C=C/c2nc3ccccc3n3cnnc23)c1
- Activity (Mus musculus [1]): 12 s
- Activity (Mus musculus [2]): 0%

Structure (SMILES): COc1ccc(/C=C/c2nc3ccccc3n3nnnc23)cc1
- Activity (Mus musculus [1]): 11 s
- Activity (Mus musculus [2]): 0%

Structure (SMILES): COc1ccc2cc(/C=C/c3nc4ccccc4n4nnnc34)ccc2c1
- Activity (Mus musculus [1]): 8 s
- Activity (Mus musculus [2]): 0%

Structure (SMILES): Fc1ccc(/C=C/c2nc3ccccc3n3c(C(F)(F)F)nnc23)cc1
- Activity (Mus musculus [1]): 0 s
- Activity (Mus musculus [2]): 100%

Structure (SMILES): CCOc1ccc(-c2nnc3c(/C=C/c4ccc(Cl)cc4)nc4ccccc4n23)cc1O
- Activity (Mus musculus [1]): 12 s
- Activity (Mus musculus [2]): 0%

Structure (SMILES): COc1ccc(/C=C/c2nc3ccccc3n3c(C(F)(F)F)nnc23)cc1
- Activity (Mus musculus [1]): 0 s
- Activity (Mus musculus [2]): 100%

Structure (SMILES): Cc1nnc2c(/C=C/c3cccc([N+](=O)[O-])c3)nc3ccccc3n12
- Activity (Mus musculus [1]): 11 s
- Activity (Mus musculus [2]): 0%

Structure (SMILES): COc1ccc(/C=C/c2nc3ccccc3n3c(C)nnc23)cc1
- Activity (Mus musculus [1]): 14 s
- Activity (Mus musculus [2]): 0%

Structure (SMILES): Fc1ccc(/C=C/c2nc3ccccc3n3nnnc23)cc1
- Activity (Mus musculus [1]): 0 s
- Activity (Mus musculus [2]): 100%

Structure (SMILES): Fc1ccc(/C=C/c2nc3ccccc3n3c(-c4ccc(-c5ccccc5)cc4)nnc23)cc1
- Activity (Mus musculus [1]): 8 s
- Activity (Mus musculus [2]): 0%

Structure (SMILES): Fc1ccc(/C=C/c2nc3ccccc3n3cnnc23)cc1
- Activity (Mus musculus [1]): 0 s
- Activity (Mus musculus [2]): 100%

Structure (SMILES): Cc1nnc2c(/C=C/c3ccc(F)cc3)nc3ccccc3n12
- Activity (Mus musculus [1]): 0 s
- Activity (Mus musculus [2]): 100%

Structure (SMILES): COc1ccc(-c2nnc3c(/C=C/c4ccc(Cl)cc4)nc4ccccc4n23)cc1
- Activity (Mus musculus [1]): 12 s
- Activity (Mus musculus [2]): 0%

From ChEMBL document CHEMBL1138556, “Synthesis of some new 4-styryltetrazolo[1,5-a]quinoxaline and 1-substituted-4-styryl[1,2,4]triazolo[4,3-a]quinoxaline derivatives as potent anticonvulsants” (2009)
